In US10472358B2, “1H-pyrrolo[2,3-c]pyridin-7(6H)-ones and pyrazolo[3,4-c]pyridin-7(6H)-ones as inhibitors of BET proteins” (Incyte Corporation, priority 2014, dated 2019):

System: KMS.12.BM cells
Assay: KMS.12.BM cell viability assay (Cell Titer-GLO, ATP quantitation)
Assay type: cell-based
Conditions: KMS-12-BM, 72 h; human myeloma cells, 3 days, concentration required for 50% cell death
Procedure, shortened: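 KMS.12.BM human myeloma cells (5000/well, RPMI with 10% FBS) were exposed to a compound concentration range for 3 days. Viable cells were measured by CellTiter-Glo ATP luminescence. IC50 is the concentration giving 50% cell death relative to untreated cells.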

SMILES: CC(C)C1Oc2c(cc(S(C)(=O)=O)cc2-c2cn(C)c(=O)c3[nH]ncc23)NC1=O (stereo not shown) [Example 84, 2-isopropyl-8-(6-methyl-7-oxo-6,7-dihydro-1H-pyrazolo[3,4-c]pyridin-4-yl)-6-(methylsulfonyl)-2H-1,4-benzoxazin-3(4H)-one]
- IC50: ≤ 1 µM
